# Measurements reported in article PMC12635268, “Novel antimicrobial peptides and peptide-microbiome crosstalk in Appalachian salamander skin” (NPJ Biofilms and Microbiomes, 2025).
# Ends that are not written are not given here.
# Experiments:
# P. aeruginosa PA01 (Si) = assay: microbe, parasite or virus in culture; type: cell-based; settings: Si
# Text: Supplement 41522_2025_837_MOESM13_ESM.xlsx, sheet "Table_S13_ESKAPEE-MIC" | column: Bacterial MIC (µg/mL)
# K. pneumoniae 4640 = settings: 4640, 20 h
# E. faecium ATCC 49224 = assay: microbe, parasite or virus in culture; settings: ATCC 49224, 20 h
# Description: (§1) Antimicrobial susceptibility testing of the 20 synthesized peptides against 17 bacterial strains of clinical relevance in the ESKAPEE panel was conducted using minimum inhibitory concentration (MIC) assays following the broth microdilution method outlined by Parker et al.[91]. The ESKAPEE panel is comprised of fourteen American Type Culture Collection (ATCC) strains and three Multidrug Resistant Organism Repository and Surveillance Network (MRSN) bacterial strains. These strains represent at least one drug-susceptible strain and one drug-resistant strain for each bacterium to assess drug efficacy across various resistance mechanisms. This panel is comprised of the following bacterial species and strains: E. faecium (ATCC 19434, ATCC 49224), S. aureus (ATCC 25923, ATCC 43300), K. pneumoniae (ATCC 700603, ATCC 13883, MRSN 1320), A. baumannii (ATCC 17978, ATCC 19606, MRSN 959), P. aeruginosa (ATCC 15692, ATCC 27853, MRSN 5519), E. cloacae (ATCC 13047, ATCC 35549), and E. coli (ATCC 35218, ATCC 43888). Bacteria were grown in cation-adjusted Mueller-Hinton broth (CAMHB) to achieve a final inoculum of 1 × 10⁵ CFU/mL. CAMHB is selected for its batch-to-batch reproducibility, low levels of antimicrobial inhibitors, and ability to support the growth of most bacterial pathogens.
# (§2) Briefly, lyophilized peptides were dissolved in 0.2% TFA + 0.4% BSA in water to 2.56 mg/mL, ultrasonicated for 20 min, diluted 10-fold into CAMHB, and then serially diluted 2-fold in 0.02% TFA + 0.04% BSA in CAMHB and assayed at a concentration of 0.25 to 128 μg/mL. Assays were set up using the Tecan Freedom EVO liquid handling robot and software (Tecan, Switzerland) with 50 μL of bacterial inoculum and 50 μL of peptide transferred into round-bottom 96-well microtiter plates. Each plate assay was performed in duplicate and incubated at 37 °C for 20 h without agitation. Bacterial growth was assessed using the BIOMIC V3 Image Analysis system (Giles Scientific, USA) and the MIC values were determined visually according to the Clinical and Laboratory Standards Institute (CLSI) guidelines.
# P. aeruginosa ATCC 27853 = assay: microbe, parasite or virus in culture; settings: ATCC 27853, 20 h
# Description: as §1, §2
# A. baumannii ATCC 17978 = assay: microbe, parasite or virus in culture; settings: ATCC 17978, 20 h
# Description: as §1, §2
# E. coli ATCC 43888 = assay: microbe, parasite or virus in culture; settings: ATCC 43888, 20 h
# Description: as §1, §2
# E. cloacae ATCC 13047 = assay: microbe, parasite or virus in culture; settings: ATCC 13047, 20 h
# Description: as §1, §2
# S. aureus ATCC 43300 = assay: microbe, parasite or virus in culture; settings: S. aureus 43300; Week 2 (12/14/2023)
# Description: as §1, §2
# E. faecium ATCC 19434 = assay: microbe, parasite or virus in culture; settings: ATCC 19434, 20 h
# Description: as §1, §2
# [1] = system: K. pneumoniae ATCC 700603; assay: microbe, parasite or virus in culture; settings: K. pneumoniae 700603; Week 2 (12/14/2023)
# Description: as §1, §2
# P. aeruginosa MRSN 5519 = assay: microbe, parasite or virus in culture; settings: MRSN 5519, 20 h
# Description: as §1, §2
# A. baumannii ATCC 19606 = assay: microbe, parasite or virus in culture; settings: ATCC 19606, 20 h
# Description: as §1, §2
# E. coli ATCC 35218 = assay: microbe, parasite or virus in culture; settings: E. coli 35218; Week 2 (12/14/2023)
# Description: as §1, §2
# E. cloacae ATCC 35549 = assay: microbe, parasite or virus in culture; settings: ATCC 35549, 20 h
# Description: as §1, §2
# S. aureus ATCC 25923 = assay: microbe, parasite or virus in culture; settings: ATCC 25923, 20 h
# Description: as §1, §2
# K. pneumoniae ATCC 13883 = assay: microbe, parasite or virus in culture; settings: ATCC 13883, 20 h
# Description: as §1, §2
# P. aeruginosa PA01 = assay: microbe, parasite or virus in culture; type: cell-based; settings: P. aeruginosa 15692 (PAO1); Week 2 (12/14/2023)
# Description: as §1, §2
# [2] = design: method as in Biomatik (vendor); settings: 1.0 mg peptide in 1.0 ml solvent; peptides synthesized by Biomatik; ref Biomatik (vendor); cited from earlier work
# A. baumannii 5075 = settings: Week 2 (12/14/2023)
sequence,measurement,setting,value
NANGASNANGASYANGASN [TrPr-Pc34],Bacterial MIC,P. aeruginosa PA01 (Si),>128.000 mg/L
same,Bacterial MIC,K. pneumoniae 4640,>128.000 mg/L
same,Bacterial MIC,E. faecium ATCC 49224,>128.000 mg/L
same,Bacterial MIC,P. aeruginosa ATCC 27853,>128.000 mg/L
same,Bacterial MIC,A. baumannii ATCC 17978,>128.000 mg/L
same,Bacterial MIC,E. coli ATCC 43888,>128.000 mg/L
same,Bacterial MIC,E. cloacae ATCC 13047,>128.000 mg/L
same,Bacterial MIC,S. aureus ATCC 43300,>128.000 mg/L
same,Bacterial MIC,E. faecium ATCC 19434,>128.000 mg/L
same,Bacterial MIC,[1],>128.000 mg/L
same,Bacterial MIC,P. aeruginosa MRSN 5519,>128.000 mg/L
same,Bacterial MIC,A. baumannii ATCC 19606,>128.000 mg/L
same,Bacterial MIC,E. coli ATCC 35218,>128.000 mg/L
same,Bacterial MIC,E. cloacae ATCC 35549,>128.000 mg/L
same,Bacterial MIC,S. aureus ATCC 25923,>128.000 mg/L
same,Bacterial MIC,K. pneumoniae ATCC 13883,>128.000 mg/L
same,Bacterial MIC,P. aeruginosa PA01,>128.000 mg/L
same,Suggest solvent (solubility),[2],1.0mg peptide soluble in 1.0ml H2O
same,Bacterial MIC,A. baumannii 5075,>128.000 mg/L
